For 23 compounds, T/C results are on record in PubChem BioAssay AID330 (DTP/NCI, 2004).

Several values for one entry are separate records, joined by “and”; a condition that tells them apart may be missing. Equal entries are not always repeated. Inconclusive results and toxic doses are left out.

The subject of the assay is P388 leukemia ip, CD2F1 mice, survival T/C. The assay can be described thus: NCI In Vivo Anticancer Drug Screen. Data for tumor model P388 Leukemia (intraperitoneal) in CD2F1 (CDF1) mice. Conditions: endpoint: median survival time, higher = longer survival. Put shortly: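 Mice carrying the transplanted tumor received test compound or vehicle. Survival was recorded in each group, and the value is the treated-group measurement divided by that of the vehicle-treated control group.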

[1] abbreviates: dose: 50.0 mg/kg/injection, schedule: Q01DX009 (ip), vehicle: saline.
[2] abbreviates: dose: 100.0 mg/kg/injection, schedule: Q01DX009 (ip), vehicle: saline.
Where [3] appears, read: dose: 12.5 mg/kg/injection, schedule: Q01DX005 (ip), vehicle: saline.
Where [4] appears, read: dose: 25.0 mg/kg/injection, schedule: Q01DX005 (ip), vehicle: saline.
The mark [5] stands for this setting: dose: 200.0 mg/kg/injection, schedule: Q01DX009 (ip), vehicle: saline.
The mark [6] stands for this setting: dose: 50.0 mg/kg/injection, schedule: Q01DX005 (ip), vehicle: Klucel (hydroxypropylcellulose) (HPC).
Setting [7] is: dose: 100.0 mg/kg/injection, schedule: Q01DX005 (ip), vehicle: Klucel (hydroxypropylcellulose) (HPC).
Where [8] appears, read: dose: 200.0 mg/kg/injection, schedule: Q01DX005 (ip), vehicle: Klucel (hydroxypropylcellulose) (HPC).
Setting [9] is: dose: 100.0 mg/kg/injection, schedule: Q01DX005 (ip), vehicle: saline with Tween-80.
[10] abbreviates: dose: 60.0 mg/kg/injection, schedule: Q01DX005 (ip), vehicle: saline with Tween-80.
[11] abbreviates: dose: 120.0 mg/kg/injection, schedule: Q01DX005 (ip), vehicle: saline with Tween-80.
[12] abbreviates: dose: 240.0 mg/kg/injection, schedule: Q01DX005 (ip), vehicle: saline with Tween-80.

With `O=C1CC(c2ccccc2)NN1` (stereo not given), the T/C under setting [1] is 103 % of control and the T/C under setting [2] is 97 % of control.
As for `CCN(CC)CCCNc1c(OC)cc(C)c2sc3ccccc3c(=O)c12`, the T/C under setting [1] is 102 % of control.
Regarding `C=C[CH2][Sn]([CH2]C)([CH2]C)[CH2]C=C`, the T/C runs as follows: under setting [3], 107 % of control; under setting [4], 114 % of control; (dose: 100.0 mg/kg/injection, schedule: Q01DX005 (ip), vehicle: saline) 154 % of control.
`CC(C)=CCCC(C)(OC1OC(COC2OC(CO)C(O)C2O)C(O)C(O)C1O)C1CCC2(C)C1C(O)CC1C3(C)CCC(OC4OC(CO)C(O)C(O)C4OC4OC(CO)C(O)C(O)C4O)C(C)(C)C3CCC12C` (stereo not given): the T/C reads like this: (dose: 2.0 mg/kg/injection, schedule: Q01DX009 (ip), vehicle: Klucel (hydroxypropylcellulose) (HPC)) 88 % of control; (dose: 4.0 mg/kg/injection, schedule: Q01DX009 (ip), vehicle: Klucel (hydroxypropylcellulose) (HPC)) 95 % of control; (dose: 8.0 mg/kg/injection, schedule: Q01DX009 (ip), vehicle: Klucel (hydroxypropylcellulose) (HPC)) 104 % of control; (dose: 16.0 mg/kg/injection, schedule: Q01DX009 (ip), vehicle: Klucel (hydroxypropylcellulose) (HPC)) 114 % of control; (dose: 32.0 mg/kg/injection, schedule: Q01DX009 (ip), vehicle: Klucel (hydroxypropylcellulose) (HPC)) 98 % of control.
With `Nc1nc(Cl)nc2c1ncn2C1OC(CO)C(O)C1F` (stereo not given), the T/C is 122 % of control under setting [3] and 159 % of control (dose: 200.0 mg/kg/injection, schedule: Q01DX005 (ip), vehicle: saline).
Consider `COc1cc2c(cc1OC)C1CCN3C(=O)CCC3[N+]1(C)CC2` (stereo not given), for which the T/C (dose: 25.0 mg/kg/injection, schedule: Q01DX009 (ip), vehicle: saline sonified) is 90 % of control; the T/C (dose: 50.0 mg/kg/injection, schedule: Q01DX009 (ip), vehicle: saline sonified) was 90 % of control; the T/C (dose: 100.0 mg/kg/injection, schedule: Q01DX009 (ip), vehicle: saline sonified) was 90 % of control.
For the compound `Cc1cc(C#N)c[n+](C)c1`, the T/C reads like this: (dose: 60.0 mg/kg/injection, schedule: Q01DX005 (ip), vehicle: saline) 108 % of control; (dose: 120.0 mg/kg/injection, schedule: Q01DX005 (ip), vehicle: saline) 95 % of control.
Regarding `CC1(C)OC2(CC1C1(C)C=CC(=O)O1)CC1(O)C(CCC34CC13C(=O)OC4c1ccoc1)O2` (stereo not given), the T/C was 97 % of control under setting [1], 90 % of control under setting [2] and 90 % of control under setting [5].
As to `CCCCCSc1nc2ccc(NCN3C(=O)C4C5C=CC(C5)C4C3=O)cc2s1` (stereo not given), the T/C was 98 % of control (dose: 50.0 mg/kg/injection, schedule: Q01DX009 (ip), vehicle: Klucel (hydroxypropylcellulose) (HPC)); 86 % of control (dose: 100.0 mg/kg/injection, schedule: Q01DX009 (ip), vehicle: Klucel (hydroxypropylcellulose) (HPC)); 92 % of control (dose: 200.0 mg/kg/injection, schedule: Q01DX009 (ip), vehicle: Klucel (hydroxypropylcellulose) (HPC)).
For the compound `Cc1ncc(Br)c(C(=O)N=C(N)N)n1`, the T/C by setting is: under setting [6], 95 % of control; under setting [7], 100 % of control; under setting [8], 94 % of control.
In the case of `O=C[C@@H](CO)O[C@H](C=O)c1c[nH]c(=O)[nH]c1=O`, the T/C (dose: 5.0 mg/kg/injection, schedule: Q01DX005 (ip), vehicle: saline) is 118 % of control; the T/C under setting [3] is 155 % of control; the T/C (dose: 12.5 mg/kg/injection, schedule: Q04DX003 (ip), vehicle: saline) is 124 % of control; the T/C under setting [4] is 156 % of control and 158 % of control; the T/C (dose: 40.0 mg/kg/injection, schedule: Q01DX005 (ip), vehicle: saline) is 155 % of control; the T/C (dose: 50.0 mg/kg/injection, schedule: Q01DX005 (ip), vehicle: saline) is 173 % of control and 190 % of control. Besides, the T/C by setting is: (dose: 80.0 mg/kg/injection, schedule: Q01DX005 (ip), vehicle: saline) 186 % of control and 245 % of control; (dose: 100.0 mg/kg/injection, schedule: Q04DX003 (ip), vehicle: saline) 185 % of control.
For `CNC(=S)OCCn1c([N+](=O)[O-])cnc1C`, the T/C is, setting by setting: (dose: 100.0 mg/kg/injection, schedule: Q01DX001 (ip), vehicle: saline with Tween-80) 92 % of control; (dose: 200.0 mg/kg/injection, schedule: Q01DX001 (ip), vehicle: saline with Tween-80) 106 % of control; (dose: 400.0 mg/kg/injection, schedule: Q01DX001 (ip), vehicle: saline with Tween-80) 105 % of control.
Consider `O=C(NC(Cc1ccc(Cl)cc1)C(=O)O)c1ccc(Br)cc1` (stereo not given), for which the T/C runs as follows: under setting [6], 100 % of control; under setting [7], 96 % of control; under setting [8], 99 % of control.
Regarding `O=C(c1cc(Nc2ccnc3cc(Cl)ccc23)ccc1O)N1CCCCC1`, the T/C was 120 % of control under setting [9] and 121 % of control (dose: 200.0 mg/kg/injection, schedule: Q01DX005 (ip), vehicle: saline with Tween-80).
As to `OCCCNc1nc2cc(Cl)ccc2o1`, the T/C reads like this: under setting [10], 119 % of control; under setting [11], 103 % of control; under setting [12], 100 % of control.
Take `O=C(Nc1ccccc1)/C(N=Nc1cc(S(=O)(=O)O)ccc1Cl)=N/Nc1cc(S(=O)(=O)O)ccc1Cl`: the T/C is, setting by setting: (dose: 50.0 mg/kg/injection, schedule: Q01DX009 (ip), vehicle: saline with Tween-80) 98 % of control; (dose: 100.0 mg/kg/injection, schedule: Q01DX009 (ip), vehicle: saline with Tween-80) 96 % of control; (dose: 200.0 mg/kg/injection, schedule: Q01DX009 (ip), vehicle: saline with Tween-80) 86 % of control.
In the case of `CC[CH2][Sn](=[O])[c]1ccccc1`, the T/C runs as follows: (dose: 12.5 mg/kg/injection, schedule: Q01DX009 (ip), vehicle: saline) 99 % of control; (dose: 25.0 mg/kg/injection, schedule: Q01DX009 (ip), vehicle: saline) 105 % of control; under setting [1], 98 % of control and 123 % of control; under setting [5], 96 % of control.
Take `CCCCCCCCCCCCCCCCSc1nc2ccc(N=Cc3ccccc3O)cc2s1`: the T/C was 92 % of control (dose: 100.0 mg/kg/injection, schedule: Q04DX003 (ip), vehicle: Klucel (hydroxypropylcellulose) (HPC)); 90 % of control (dose: 200.0 mg/kg/injection, schedule: Q04DX003 (ip), vehicle: Klucel (hydroxypropylcellulose) (HPC)); 91 % of control (dose: 400.0 mg/kg/injection, schedule: Q04DX003 (ip), vehicle: Klucel (hydroxypropylcellulose) (HPC)).
For `CCOC(=O)N1CCN(C(=S)NNC(C)c2cccc[n+]2[O-])CC1` (stereo not given), the T/C (dose: 50.0 mg/kg/injection, schedule: Q01DX005 (ip), vehicle: saline with Tween-80) was 99 % of control and the T/C under setting [9] is 100 % of control.
For `O=C1CCCc2ccc([N+](=O)[O-])cc21`, the T/C by setting is: (dose: 25.0 mg/kg/injection, schedule: Q01DX009 (ip), vehicle: suspension in saline) 98 % of control; (dose: 50.0 mg/kg/injection, schedule: Q01DX009 (ip), vehicle: suspension in saline) 98 % of control; (dose: 100.0 mg/kg/injection, schedule: Q01DX009 (ip), vehicle: suspension in saline) 93 % of control; (dose: 200.0 mg/kg/injection, schedule: Q01DX009 (ip), vehicle: suspension in saline) 93 % of control.
`O=C=Nc1ccc(N=Nc2ccccc2)cc1`: the T/C is, setting by setting: (dose: 12.5 mg/kg/injection, schedule: Q04DX003 (ip), vehicle: saline with Tween-80) 97 % of control; (dose: 25.0 mg/kg/injection, schedule: Q04DX003 (ip), vehicle: saline with Tween-80) 90 % of control; (dose: 50.0 mg/kg/injection, schedule: Q04DX003 (ip), vehicle: saline with Tween-80) 90 % of control; (dose: 100.0 mg/kg/injection, schedule: Q04DX003 (ip), vehicle: saline with Tween-80) 90 % of control and 92 % of control; (dose: 150.0 mg/kg/injection, schedule: Q04DX003 (ip), vehicle: saline with Tween-80) 92 % of control; (dose: 225.0 mg/kg/injection, schedule: Q04DX003 (ip), vehicle: saline with Tween-80) 100 % of control. Further, the T/C (dose: 335.0 mg/kg/injection, schedule: Q04DX003 (ip), vehicle: saline with Tween-80) was 93 % of control.
With `O=C(/C=C/c1ccccc1)NC1C=Nc2ccccc2NC1=O` (stereo not given), the T/C under setting [10] was 92 % of control, the T/C under setting [11] is 92 % of control and the T/C under setting [12] was 99 % of control.
For the compound `O=C(COc1ccccc1)NC(=S)Nc1nccs1`, the T/C reads like this: under setting [10], 96 % of control; under setting [11], 93 % of control; under setting [12], 102 % of control.
